Legend:
[1] = test system: C. auris; assay: Differentiation of C. auris from other Candida species with other QACs in growth media; assay type: cell-based; conditions: QAC added to growth medium
[2] = test system: C. auris; assay: Plate assay on Sabouraud dextrose medium with tBHP (FIGS. 13A-13B); assay type: cell-based, Candida auris; conditions: 30° C.
Method: FIGS. 13A-13B illustrate C. auris's relative sensitivity to tBHP. FIG. 13A depicts a plate with a tBHP-containing culture medium that includes seven different yeasts (Candida albicans, Candida glabrata, Candida krusei, Candida auris, Candida haemulonii, Candida famata, and Saccharomyces cerevisiae) at five different calculated cell counts (62, 625, 6,250, […], with the uncertainty inherent in the calculation). The yeast-containing plate was incubated at 30° C. The plating scheme is illustrated in FIG. 1. The culture medium comprised a Sabouraud dextrose medium with tBHP (added after autoclaving the other media ingredients from a 70% solution in water). Whereas a resuspension of cells picked from a colony will always enhance the sensitivity of this (and related) assays, it is possible to streak cells without any dilution directly from a colony if the plate is evaluated early (after approximately 24 hours, some regrowth will occur later), as depicted in FIG. 13B. […]

[3] = test system: Candida auris; assay: BAC media panel growth key (Table A, FIG. 19); assay type: cell-based; conditions: BAC low 1.5 mg/l or high 10 mg/l; pH 3.3 or 7.5; peptone, potato dextrose or YNB with amino acids; 23° C. or 37° C.
Description: (§1) As an example, a group of 36 yeast strains with Candida-like morphology representing 29 different species was used to define single species or subgroups of species depending on their QAC sensitivity at different temperatures, pH values and in the presence of different supplements (e.g. peptone, potato dextrose, and YNB with amino acids).
(§2) Preliminary tests were designed with several representative yeast strains with a range of benzalkonium chloride (“BAC”) concentrations, a mix of supplements, neutral pH, and intermediate temperature (30° C.). The observed growth characteristics made it likely that two BAC concentrations (“low”=1.5 mg/l and “high”=10 mg/l) could be used in conjunction with the three different growth supplements (used separately). Low and high pH and temperature values were defined to elicit species-specific growth responses: two different pH conditions (pH 3.3 and pH 7.5, adjusted with concentrations of HCl or 100 mg/ml NaOH) and incubation temperatures (23° C. and 37° C.). Commonly used concentrations for peptone (20 g/l), potato dextrose (24 g/l), and yeast nitrogen base with amino acids (6.7 g/l) were applied. […] For example: “pH7.5/low BAC/Pep-23° C.” refers to a plate with pH 7.5, […] BAC (low BAC) containing peptone as a growth supplement and incubated at 23° C.
(§3) All 36 strains were streaked and precultured for 48 h on Sabauroud-dextrose medium at 30° C. before cell samples were suspended in water (as described before). 10-15 μl drops of these suspensions were applied to the different media and plates were incubated in parallel at 37° C. and 23° C. These drops were classified as growing (+) or non-growing (−) after 3 days or 5 days of incubation, respectively.

[4] = test system: Candida guilliermondii; assay: BAC media panel growth key (Table A, FIG. 19); assay type: cell-based; conditions: BAC low 1.5 mg/l or high 10 mg/l; pH 3.3 or 7.5; peptone, potato dextrose or YNB with amino acids; 23° C. or 37° C.
Description: as §1, §2, §3

[5] = test system: Candida rugosa; assay: BAC media panel growth key (Table A, FIG. 19); assay type: cell-based; conditions: BAC low 1.5 mg/l or high 10 mg/l; pH 3.3 or 7.5; peptone, potato dextrose or YNB with amino acids; 23° C. or 37° C.
Description: as §1, §2, §3

[6] = test system: Candida valida; assay: BAC media panel growth key (Table A, FIG. 19); assay type: cell-based; conditions: BAC low 1.5 mg/l or high 10 mg/l; pH 3.3 or 7.5; peptone, potato dextrose or YNB with amino acids; 23° C. or 37° C.
Description: as §1, §2, §3

Compound: CC(C)(C)CC(C)(C)c1ccc(OCCOCC[N+](C)(C)Cc2ccccc2)cc1 [benzethonium chloride]
- use to differentiate C. auris from other Candida species [1]: successfully used

Compound: CC(C)(C)OO [tert-butyl-hydroperoxide]
- sensitivity to tBHP relative to other yeasts [2]: relatively high sensitivity

Compound: CCCCCCCCCCCCCC[N+](C)(C)C.[Br-] [tetradecyltrimethylammonium bromide]
- use to differentiate C. auris from other Candida species [1]: successfully used

Compound: benzalkonium chloride
- growth pattern over 24 BAC / supplement / pH / temperature conditions [3]: resistance to BAC under virtually all conditions
- growth pattern over 24 BAC / supplement / pH / temperature conditions [4]: growth is observed under all conditions at 23 °C but not 37 °C
- growth pattern over 24 BAC / supplement / pH / temperature conditions [5]: growth at the high concentration appears to be restricted to the low pH
- growth pattern over 24 BAC / supplement / pH / temperature conditions [6]: BAC sensitivity under all conditions
- use to differentiate C. auris from other Candida species [1]: successfully used

From US11512279B2, “Technology to generate and utilize customized microorganism-growth assay keys” (priority 2018, dated 2022)
